According to paper PMC11420776 (RSC Advances, 2024):

What was measured:
[1] = test system: HT29 (colon cancer); assay: NCI 60-cell one-dose antiproliferative screen; type: cell-based, human; details: one dose 10 μM
[2] = test system: HCC-2998 (colon cancer); assay: NCI 60-cell one-dose antiproliferative screen; type: cell-based, human; details: one dose 10 μM
[3] = test system: PC-3 (prostate cancer); assay: NCI 60-cell one-dose antiproliferative screen; type: cell-based, human; details: one dose 10 μM
[4] = test system: NCI-H322M (NSC lung cancer); assay: NCI 60-cell one-dose antiproliferative screen; type: cell-based, human; details: one dose 10 μM
[5] = test system: UACC-62 (melanoma); assay: NCI 60-cell one-dose antiproliferative screen; type: cell-based, human; details: one dose 10 μM
[6] = test system: SK-OV-3 (ovarian cancer); assay: NCI 60-cell one-dose antiproliferative screen; type: cell-based, human; details: one dose 10 μM
[7] = test system: M14 (melanoma); assay: NCI 60-cell one-dose antiproliferative screen; type: cell-based, human; details: one dose 10 μM
[8] = test system: A498 (renal cancer); assay: NCI 60-cell one-dose antiproliferative screen; type: cell-based, human; details: one dose 10 μM
[9] = test system: IGROV1 (ovarian cancer); assay: NCI 60-cell one-dose antiproliferative screen; type: cell-based, human; details: one dose 10 μM
[10] = test system: NCI-H23 (NSC lung cancer); assay: NCI 60-cell one-dose antiproliferative screen; type: cell-based, human; details: one dose 10 μM
[11] = test system: CCRF-CEM (leukemia); assay: NCI 60-cell one-dose antiproliferative screen; type: cell-based, human; details: one dose 10 μM
[12] = test system: UACC-257 (melanoma); assay: NCI 60-cell one-dose antiproliferative screen; type: cell-based, human; details: one dose 10 μM
[13] = test system: A549/ATCC (NSC lung cancer); assay: NCI 60-cell one-dose antiproliferative screen; type: cell-based, human; details: one dose 10 μM
[14] = test system: SNB-75 (CNS cancer); assay: NCI 60-cell one-dose antiproliferative screen; type: cell-based, human; details: one dose 10 μM
[15] = test system: UO-31 (renal cancer); assay: NCI 60-cell one-dose antiproliferative screen; type: cell-based, human; details: one dose 10 μM
[16] = test system: RPMI-8226 (leukemia); assay: NCI 60-cell one-dose antiproliferative screen; type: cell-based, human; details: one dose 10 μM
[17] = test system: EKVX (NSC lung cancer); assay: NCI 60-cell one-dose antiproliferative screen; type: cell-based, human; details: one dose 10 μM
[18] = test system: SK-MEL-2 (melanoma); assay: NCI 60-cell one-dose antiproliferative screen; type: cell-based, human; details: one dose 10 μM
[19] = test system: SNB-19 (CNS cancer); assay: NCI 60-cell one-dose antiproliferative screen; type: cell-based, human; details: one dose 10 μM
[20] = test system: OVCAR-3 (ovarian cancer); assay: NCI 60-cell one-dose antiproliferative screen; type: cell-based, human; details: one dose 10 μM
[21] = test system: MDA-MB-435 (melanoma); assay: NCI 60-cell one-dose antiproliferative screen; type: cell-based, human; details: one dose 10 μM
[22] = test system: LOX IMIV (melanoma); assay: NCI 60-cell one-dose antiproliferative screen; type: cell-based, human; details: one dose 10 μM
[23] = test system: HS 578T (breast cancer); assay: NCI 60-cell one-dose antiproliferative screen; type: cell-based, human; details: one dose 10 μM
[24] = test system: MCF7 (breast cancer); assay: NCI 60-cell one-dose antiproliferative screen; type: cell-based, human; details: one dose 10 μM
[25] = test system: NCI/ADR-RES (ovarian cancer); assay: NCI 60-cell one-dose antiproliferative screen; type: cell-based, human; details: one dose 10 μM
[26] = test system: T-47D (breast cancer); assay: NCI 60-cell one-dose antiproliferative screen; type: cell-based, human; details: one dose 10 μM
[27] = test system: TK-10 (renal cancer); assay: NCI 60-cell one-dose antiproliferative screen; type: cell-based, human; details: one dose 10 μM
[28] = test system: NCI-H226 (NSC lung cancer); assay: NCI 60-cell one-dose antiproliferative screen; type: cell-based, human; details: one dose 10 μM
[29] = test system: MALME-3M (melanoma); assay: NCI 60-cell one-dose antiproliferative screen; type: cell-based, human; details: one dose 10 μM
[30] = test system: HOP-62 (NSC lung cancer); assay: NCI 60-cell one-dose antiproliferative screen; type: cell-based, human; details: one dose 10 μM
[31] = test system: HOP-92 (NSC lung cancer); assay: NCI 60-cell one-dose antiproliferative screen; type: cell-based, human; details: one dose 10 μM
[32] = test system: CAKI-1 (renal cancer); assay: NCI 60-cell one-dose antiproliferative screen; type: cell-based, human; details: one dose 10 μM
[33] = test system: OVCAR-4 (ovarian cancer); assay: NCI 60-cell one-dose antiproliferative screen; type: cell-based, human; details: one dose 10 μM
[34] = test system: ACHN (renal cancer); assay: NCI 60-cell one-dose antiproliferative screen; type: cell-based, human; details: one dose 10 μM
[35] = test system: 786-0 (renal cancer); assay: NCI 60-cell one-dose antiproliferative screen; type: cell-based, human; details: one dose 10 μM
[36] = test system: OVCAR-8 (ovarian cancer); assay: NCI 60-cell one-dose antiproliferative screen; type: cell-based, human; details: one dose 10 μM
[37] = test system: NCI-H460 (NSC lung cancer); assay: NCI 60-cell one-dose antiproliferative screen; type: cell-based, human; details: one dose 10 μM
[38] = test system: HCT-116 (colon cancer); assay: NCI 60-cell one-dose antiproliferative screen; type: cell-based, human; details: one dose 10 μM
[39] = test system: RXF 393 (renal cancer); assay: NCI 60-cell one-dose antiproliferative screen; type: cell-based, human; details: one dose 10 μM
[40] = test system: MDA-MB-468 (breast cancer); assay: NCI 60-cell one-dose antiproliferative screen; type: cell-based, human; details: one dose 10 μM
[41] = test system: OVCAR-5 (ovarian cancer); assay: NCI 60-cell one-dose antiproliferative screen; type: cell-based, human; details: one dose 10 μM
[42] = test system: COLO-205 (colon cancer); assay: NCI 60-cell one-dose antiproliferative screen; type: cell-based, human; details: one dose 10 μM
[43] = test system: NCI-H522 (NSC lung cancer); assay: NCI 60-cell one-dose antiproliferative screen; type: cell-based, human; details: one dose 10 μM
[44] = test system: KM12 (colon cancer); assay: NCI 60-cell one-dose antiproliferative screen; type: cell-based, human; details: one dose 10 μM
[45] = test system: SF-539 (CNS cancer); assay: NCI 60-cell one-dose antiproliferative screen; type: cell-based, human; details: one dose 10 μM
[46] = test system: SF-295 (CNS cancer); assay: NCI 60-cell one-dose antiproliferative screen; type: cell-based, human; details: one dose 10 μM
[47] = test system: MDA-MB-231/ATCC (breast cancer); assay: NCI 60-cell one-dose antiproliferative screen; type: cell-based, human; details: one dose 10 μM
[48] = test system: HCT-15 (colon cancer); assay: NCI 60-cell one-dose antiproliferative screen; type: cell-based, human; details: one dose 10 μM
[49] = test system: 60 human tumor cell lines; assay: NCI 60-cell one-dose antiproliferative screen, whole panel; type: cell-based; details: Homo sapiens, 60 cell, read-out: Mean inhibition (mean GI%)
[50] = test system: DU-145 (prostate cancer); assay: NCI 60-cell one-dose antiproliferative screen; type: cell-based, human; details: one dose 10 μM
[51] = test system: SW-620 (colon cancer); assay: NCI 60-cell one-dose antiproliferative screen; type: cell-based, human; details: one dose 10 μM
[52] = test system: SF-268 (CNS cancer); assay: NCI 60-cell one-dose antiproliferative screen; type: cell-based, human; details: one dose 10 μM
[53] = test system: SN12C (renal cancer); assay: NCI 60-cell one-dose antiproliferative screen; type: cell-based, human; details: one dose 10 μM
[54] = test system: U251 (CNS cancer); assay: NCI 60-cell one-dose antiproliferative screen; type: cell-based, human; details: one dose 10 μM
[55] = test system: SK-MEL-28 (melanoma); assay: NCI 60-cell one-dose antiproliferative screen; type: cell-based, human; details: one dose 10 μM
[56] = test system: caspase-9; assay: Caspase-9; type: cell-based, human; details: MCF7 cells, versus untreated control cells
[57] = MTT cytotoxicity assay, MCF10a; type: cell-based; details: human, MCF10a normal mammary epithelial cells

## COc1ccc(-c2nnc3ccc(NNC(C)=O)nn23)cc1 [Compound 6b, N′-(3-(4-methoxyphenyl)-[1,2,4]triazolo[4,3-b]pyridazin-6-yl)acetohydrazide]
[1]
  GI%: — (— GI% is below 15%)
[2]
  GI%: — (— GI% is below 15%)
[3]
  GI%: — (— GI% is below 15%)
[4]
  GI%: — (— GI% is below 15%)
[5]
  GI%: — (— GI% is below 15%)
[6]
  GI%: — (— GI% is below 15%)
[7]
  GI%: — (— GI% is below 15%)
[8]
  GI%: — (— GI% is below 15%)
[9]
  GI%: — (— GI% is below 15%)
[10]
  GI%: — (— GI% is below 15%)
[11]
  GI%: — (— GI% is below 15%)
[12]
  GI%: — (— GI% is below 15%)
[13]
  GI%: — (— GI% is below 15%)
[14]
  GI%: — (— GI% is below 15%)
[15]
  GI%: — (— GI% is below 15%)
[16]
  GI%: — (— GI% is below 15%)
[17]
  GI%: — (— GI% is below 15%)
[18]
  GI%: — (— GI% is below 15%)
[19]
  GI%: — (— GI% is below 15%)
[20]
  GI%: — (— GI% is below 15%)
[21]
  GI%: — (— GI% is below 15%)
[22]
  GI%: — (— GI% is below 15%)
[23]
  GI%: — (— GI% is below 15%)
[24]
  GI%: — (— GI% is below 15%)
[25]
  GI%: — (— GI% is below 15%)
[26]
  GI%: — (— GI% is below 15%)
[27]
  GI%: — (— GI% is below 15%)
[28]
  GI%: — (— GI% is below 15%)
[29]
  GI%: — (— GI% is below 15%)
[30]
  GI%: — (— GI% is below 15%)
[31]
  GI%: — (— GI% is below 15%)
[32]
  GI%: — (— GI% is below 15%)
[33]
  GI%: — (— GI% is below 15%)
[34]
  GI%: — (— GI% is below 15%)
[35]
  GI%: — (— GI% is below 15%)
[36]
  GI%: — (— GI% is below 15%)
[37]
  GI%: — (— GI% is below 15%)
[38]
  GI%: — (— GI% is below 15%)
[39]
  GI%: — (— GI% is below 15%)
[40]
  GI%: — (— GI% is below 15%)
[41]
  GI%: — (— GI% is below 15%)
[42]
  GI%: — (— GI% is below 15%)
[43]
  GI%: — (— GI% is below 15%)
[44]
  GI%: — (— GI% is below 15%)
[45]
  GI%: — (— GI% is below 15%)
[46]
  GI%: — (— GI% is below 15%)
[47]
  GI%: — (— GI% is below 15%)
[48]
  GI%: — (— GI% is below 15%)
[49]
  inhibition at 10 µM: < 0%
[50]
  GI%: — (— GI% is below 15%)
[51]
  GI%: — (— GI% is below 15%)
[52]
  GI%: — (— GI% is below 15%)
[53]
  GI%: — (— GI% is below 15%)
[54]
  GI%: — (— GI% is below 15%)
[55]
  GI%: — (— GI% is below 15%)

## CN[C@@H]1C[C@H]2O[C@@](C)([C@@H]1OC)n1c3ccccc3c3c4c(c5c6ccccc6n2c5c31)C(=O)NC4 [Staurosporine, reference compound]
[56]
  increase of apoptotic caspase-9 level: 7.19 fold
[57]
  IC50 at 72 h: 18.3 ± 8.03 µM
